Values quoted from earlier work as cited in patent publication US20090030075A1, “Remedy for and Method of Treating Ischemic Cerebral Stroke” (priority 2005, published 2009).

Test system: cerebral infarction lesion
Conditions: FR139317 used together with SUN9216

For CC(C)C[C@H](NC(=O)N1CCCCCC1)C(=O)N[C@H](Cc1cn(C)c2ccccc12)C(=O)N[C@H](Cc1ccccn1)C(=O)O [FR139317], the “activity of inhibiting development of a cerebral infarction lesion” value is given as “this effect disappears”.
